Test results as given in BindingDB's records for doi:10.1016/j.ejmech.2023.115101 (n/a, 2023).
pIC50: −log10 of the molar value.

Molecular target: Paired box protein Pax-2 (Homo sapiens, UniProt Q02962)
Assay: Inhibition of pax2 (unknown origin) in human SK-OV-3 cells measured after 24 hrs by immunoblotting analysis

Chain of Paired box protein Pax-2 (Q02962 whole entry): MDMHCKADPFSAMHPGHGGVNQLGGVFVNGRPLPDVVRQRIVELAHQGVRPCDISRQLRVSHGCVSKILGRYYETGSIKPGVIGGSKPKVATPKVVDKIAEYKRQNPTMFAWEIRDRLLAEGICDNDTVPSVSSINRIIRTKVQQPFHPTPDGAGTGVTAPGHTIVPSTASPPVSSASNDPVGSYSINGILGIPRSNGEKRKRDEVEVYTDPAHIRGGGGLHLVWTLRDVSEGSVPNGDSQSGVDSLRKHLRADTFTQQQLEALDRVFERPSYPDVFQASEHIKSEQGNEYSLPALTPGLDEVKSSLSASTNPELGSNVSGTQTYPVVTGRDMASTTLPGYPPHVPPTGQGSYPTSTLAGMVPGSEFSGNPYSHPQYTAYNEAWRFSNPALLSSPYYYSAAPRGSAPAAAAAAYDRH

pIC50: 5.82
Structure (SMILES): Cc1ccc(C)c(N2CCN(c3c(C)c(C)nc4ncnn34)CC2)c1
